Experimental findings from patent US20060193796A1, “Method for refining ultraviolet absorbent, ultraviolet absorbent and cosmetic material” (priority 2003, published 2006) are described below.

Series [1] in a line: Hue evaluation for ultraviolet absorbers, Hazen color (APHA), Lovibond Nessleriser 2150. It counts as physicochemical. The protocol:
Hue Evaluation for Ultraviolet Absorbers
Hazen color (APHA) was measured using Lovibond Nessleriser 2150.

Series [2] is described as follows: Odor evaluation for ultraviolet absorbers after a time has elapsed (storage for 3 weeks). It counts as physicochemical. The note with it: 10 ranks: 1, no odor, 10, very intense odor; for Odor evaluation for ultraviolet absorber after a time has elapsed: In the dark: stored in the dark at 50° C. for 3 weeks; for Odor evaluation for ultraviolet absorber after a time has elapsed: In the light: stored in the light at 20° C., 1000 lux for 3 weeks. The protocol:
Odor Evaluation for Ultraviolet Absorbers After a Time Has Elapsed 100 ml of each ultraviolet absorber was filled into two different 200-ml sample bottles, and one bottle was stored in the dark (at 50° C.) and the other in the light (at 20° C., 1000 lux) for 3 weeks. The intensity of overall odor and that of irritating odor were evaluated using one of 10 ranks: 1, no odor; . . .; 10, very intense odor and scored.

As for `CCCCC(CC)COC(=O)C=Cc1ccc(OC)cc1` (stereo not drawn) [compound 6, 2-ethylhexyl p-methoxycinnamate], the “Evaluation for ultraviolet absorber: Hue” value in series [1] worked out at 20 APHA. Further, in series [2], the “Odor evaluation for ultraviolet absorber after a time has elapsed: In the dark” value (shortened to “Odor evaluation … In the dark”) came to 3 and the “Odor evaluation for ultraviolet absorber after a time has elapsed: In the light” value (“Odor evaluation … In the light” for short) was found to be 2.

Turning to `CCCCC(CC)COC(=O)C=Cc1ccc(OC)cc1` (stereo not drawn) [Example 1, 2-ethylhexyl p-methoxycinnamate], the “Evaluation for ultraviolet absorber: Hue” value in series [1] is on record as 10 APHA. For the same compound, in series [2], the “Odor evaluation … In the dark” value came out at 2 and the “Odor evaluation … In the light” value was 1.

For `CCCCC(CC)COC(=O)C=Cc1ccc(OC)cc1` (stereo not drawn) [compound 7, 2-ethylhexyl p-methoxycinnamate], the “Evaluation for ultraviolet absorber: Hue” value in series [1] came out at 10 APHA. In addition, in series [2], the “Odor evaluation … In the dark” value stood at 3 and the “Odor evaluation … In the light” value amounted to 2.

As for `CCCCC(CC)COC(=O)C=Cc1ccc(OC)cc1` (stereo not drawn) [compound 9, 2-ethylhexyl p-methoxycinnamate], the “Evaluation for ultraviolet absorber: Hue” value in series [1] is on record as 10 APHA. For the same compound, in series [2], the “Odor evaluation … In the dark” value turned out to be 2 and the “Odor evaluation … In the light” value is reported as 3.

Regarding `CCCCC(CC)COC(=O)C=Cc1ccc(OC)cc1` (stereo not drawn) [Example 4, 2-ethylhexyl p-methoxycinnamate], in series [1], the “Evaluation for ultraviolet absorber: Hue” value is 10 APHA. In series [2], the “Odor evaluation … In the dark” value was 2 and the “Odor evaluation … In the light” value is on record as 1.

As to `CCCCC(CC)COC(=O)C=Cc1ccc(OC)cc1` (stereo not drawn) [compound 8, 2-ethylhexyl p-methoxycinnamate], the “Evaluation for ultraviolet absorber: Hue” value in series [1] was 20 APHA. In addition, in series [2], the “Odor evaluation … In the dark” value is recorded as 3 and the “Odor evaluation … In the light” value is recorded as 2.

Consider `CCCCC(CC)COC(=O)C=Cc1ccc(OC)cc1` (stereo not drawn) [compound 5, 2-ethylhexyl p-methoxycinnamate], for which the “Evaluation for ultraviolet absorber: Hue” value in series [1] is reported as 20 APHA. Further, in series [2], the “Odor evaluation … In the dark” value stood at 3 and the “Odor evaluation … In the light” value is 3.

With `CCCCC(CC)COC(=O)C=Cc1ccc(OC)cc1` (stereo not drawn) [Example 2, 2-ethylhexyl p-methoxycinnamate], the “Evaluation for ultraviolet absorber: Hue” value in series [1] stood at 10 APHA. Moreover, in series [2], the “Odor evaluation … In the dark” value is 2 and the “Odor evaluation … In the light” value stood at 1.

As for `CCCCC(CC)COC(=O)C=Cc1ccc(OC)cc1` (stereo not drawn) [compound 2, 2-ethylhexyl p-methoxycinnamate], the “Evaluation for ultraviolet absorber: Hue” value in series [1] is given as 10 APHA. In series [2], the “Odor evaluation … In the dark” value was 5 and the “Odor evaluation … In the light” value was determined as 4.

For the compound `CCCCC(CC)COC(=O)C=Cc1ccc(OC)cc1` (stereo not drawn) [compound 4, 2-ethylhexyl p-methoxycinnamate], the “Evaluation for ultraviolet absorber: Hue” value in series [1] was 10 APHA. Also, in series [2], the “Odor evaluation … In the dark” value stood at 4 and the “Odor evaluation … In the light” value stood at 3.

For the compound `CCCCC(CC)COC(=O)C=Cc1ccc(OC)cc1` (stereo not drawn) [compound 3, 2-ethylhexyl p-methoxycinnamate], the “Evaluation for ultraviolet absorber: Hue” value in series [1] was found to be 40 APHA. For the same compound, in series [2], the “Odor evaluation … In the dark” value is 4 and the “Odor evaluation … In the light” value worked out at 4.

For the compound `CCCCC(CC)COC(=O)C=Cc1ccc(OC)cc1` (stereo not drawn) [Example 3, 2-ethylhexyl p-methoxycinnamate], the “Evaluation for ultraviolet absorber: Hue” value in series [1] worked out at 10 APHA. In series [2], the “Odor evaluation … In the dark” value was found to be 2 and the “Odor evaluation … In the light” value turned out to be 1.

Regarding `CCCCC(CC)COC(=O)C=Cc1ccc(OC)cc1` (stereo not drawn) [compound 1, 2-ethylhexyl p-methoxycinnamate], the “Evaluation for ultraviolet absorber: Hue” value in series [1] is listed as 40 APHA. Also, in series [2], the “Odor evaluation … In the dark” value is 5 and the “Odor evaluation … In the light” value turned out to be 4.
